Assay results from patent US10626081B2, “Farnesoid X receptor agonists and uses thereof” (Metacrine, Inc., priority 2015, dated 2020).

Key:
FXR [1] = biological target: T1, FXR (Homo sapiens, UniProt Q96RI1); experiment: In Vitro FXR Assay (TK): TK-ECRE-luc reporter in transfected CV-1 cells; format: cell-based; settings: CV-1 cells transfected with hFXR, hRXR, 18 h incubation, luminescence
T1 construct: expressed in transfected cells; host or cells: CV-1 cells
T1 sequence (Q96RI1 1-486): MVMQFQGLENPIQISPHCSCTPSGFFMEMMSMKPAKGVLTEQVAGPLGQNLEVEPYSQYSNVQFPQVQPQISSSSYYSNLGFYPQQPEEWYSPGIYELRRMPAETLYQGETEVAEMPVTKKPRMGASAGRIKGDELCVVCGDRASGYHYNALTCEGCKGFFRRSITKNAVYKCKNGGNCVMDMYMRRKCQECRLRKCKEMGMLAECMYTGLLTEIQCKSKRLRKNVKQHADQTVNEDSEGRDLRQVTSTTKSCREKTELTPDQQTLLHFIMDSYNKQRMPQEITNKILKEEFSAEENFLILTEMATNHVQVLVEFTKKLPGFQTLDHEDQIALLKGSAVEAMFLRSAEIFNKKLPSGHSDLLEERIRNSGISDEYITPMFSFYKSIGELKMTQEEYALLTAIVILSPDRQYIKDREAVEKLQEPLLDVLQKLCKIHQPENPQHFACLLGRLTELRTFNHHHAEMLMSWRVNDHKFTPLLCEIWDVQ
T1 sequence (P19793 1-462 partner): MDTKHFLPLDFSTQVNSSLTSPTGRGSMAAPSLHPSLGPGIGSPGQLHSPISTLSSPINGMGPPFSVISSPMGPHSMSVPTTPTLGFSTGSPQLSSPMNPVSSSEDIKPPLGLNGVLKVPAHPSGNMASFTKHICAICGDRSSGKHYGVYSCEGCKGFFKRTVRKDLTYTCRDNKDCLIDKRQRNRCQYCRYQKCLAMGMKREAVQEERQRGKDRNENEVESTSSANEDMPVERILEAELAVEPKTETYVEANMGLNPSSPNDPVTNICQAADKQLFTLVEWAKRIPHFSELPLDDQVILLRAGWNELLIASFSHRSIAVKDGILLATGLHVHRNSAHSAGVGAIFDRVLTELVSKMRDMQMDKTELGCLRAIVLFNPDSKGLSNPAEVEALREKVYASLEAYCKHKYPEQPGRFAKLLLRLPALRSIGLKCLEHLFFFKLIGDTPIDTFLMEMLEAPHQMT
How it was run: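 Luciferase read-out from lysed CV-1 cells exposed 18 h to DMSO-diluted compounds. Cells had been transfected overnight with expression plasmids for hFXR and hRXR plus TK-ECRE-luc reporter and pCMX-YFP, grown in charcoal-stripped serum at 37 °C, 5% CO2.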

FXR [2] = biological target: T1, FXR; experiment: In Vitro FXR Assay (PGL3): luciferase reporter in transfected CV-1 cells; format: cell-based; settings: CV-1 cells transfected with hFXR, hRXR, PGL3-ECRE*6-luc; 18 h incubation; luminescence
How it was run: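 CV-1 cells in charcoal-stripped FBS were transiently co-transfected with full-length human FXR, RXR, an ECRE×6-luciferase reporter, β-gal and YFP plasmids. Transfected cells were reseeded onto half-log compound dilutions and incubated 18 h. Luciferase luminescence was read after lysis, and EC50 was determined.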

| EC50 (FXR [1]) [µM] | Cmpd/Fex (ratio of the EC50 for the test compound relative to the EC50 of the Fexaramine control) (FXR [2]) | Compound |
| --- | --- | --- |
| 1 to 10 | ++ (‘++’ means Cmpd/Fex > 10 & < 100) | COC(=O)/C=C/c1cccc(N(Cc2ccc(-c3ccc(N(C)C)c(OC)c3)cc2)C(=O)C2CCCCC2)c1 [compound 75, (E)-methyl 3-(3-(N-((4′-(dimethylamino)-3′-methoxy-[1,1′-biphenyl]-4-yl)methyl)cyclohexanecarboxamido)phenyl) acrylate] |
| 1 to 10 | +++ (‘+++’ means Cmpd/Fex < 10) | COC(=O)/C=C/c1cccc(N(Cc2ccc(-c3ccc(Cl)cc3)cc2)C(=O)C2CCCCC2)c1 [compound 34, (E)-Methyl 3-(3-(N-((4′-chloro-[1,1′-biphenyl]-4-yl)methyl)cyclohexanecarboxamido)phenyl)acrylate] |
| ≤ 1 | +++ (‘+++’ means Cmpd/Fex < 10) | COC(=O)/C=C/c1cccc(N(Cc2ccc(-c3ccc(N(C)C)c(C#N)c3)cc2)C(=O)C2CCCCC2)c1 [compound 72, (E)-Methyl 3-(3-(N-((3′-cyano-4′-(dimethylamino)-[1,1′-biphenyl]-4-yl)methyl)cyclohexanecarboxamido)phenyl) acrylate] |
| 1 to 10 | + (‘+’ means Cmpd/Fex > 100) | COC(=O)/C=C/c1cccc(N(Cc2ccc(-c3c(F)cccc3F)cc2)C(=O)C2CCCCC2)c1 [compound 59, (E)-Methyl 3-(3-(N-((2′,6′-difluoro-[1,1′-biphenyl]-4-yl)methyl)cyclohexanecarboxamido)phenyl) acrylate] |
| ≤ 1 | +++ (‘+++’ means Cmpd/Fex < 10) | COC(=O)/C=C/c1cccc(N(Cc2ccc(-c3ccc4c(ccn4C)c3)cc2)C(=O)C2CCCCC2)c1 [compound 62, (E)-Methyl 3-(3-(N-(4-(1-methyl-1H-indol-5-yl)benzyl)cyclohexanecarboxamido)phenyl) acrylate] |
| > 10 | + (‘+’ means Cmpd/Fex > 100) | COC(=O)/C=C/c1cccc(N(Cc2ccc(-c3cccc(O)c3)cc2)C(=O)C2CCCCC2)c1 [compound 55, (E)-Methyl 3-(3-(N-((3′-hydroxy-[1,1′-biphenyl]-4-yl)methyl)cyclohexanecarboxamido)phenyl) acrylate] |
| 1 to 10 | +++ (‘+++’ means Cmpd/Fex < 10) | COC(=O)/C=C/c1cccc(N(Cc2ccc(-c3ccc(C(C)C)cc3)cc2)C(=O)C2CCCCC2)c1 [compound 70, (E)-Methyl 3-(3-(N-((4′-isopropyl-[1,1′-biphenyl]-4-yl)methyl)cyclohexanecarboxamido)phenyl) acrylate] |
| ≤ 1 | +++ (‘+++’ means Cmpd/Fex < 10) | COC(=O)/C=C/c1cccc(N(Cc2ccc(-c3ccc(N(C)C)nc3)cc2)C(=O)C2CCCCC2)c1 [compound 38, (E)-Methyl 3-(3-(N-(4-(6-(dimethylamino)pyridin-3-yl)benzyl)cyclohexanecarboxamido)phenyl) acrylate] |

The remaining lines, values behind:

| Compound | EC50 (FXR [1]) [µM] | Cmpd/Fex (ratio of the EC50 for the test compound relative to the EC50 of the Fexaramine control) (FXR [2]) |
| --- | --- | --- |
| COC(=O)/C=C/c1cccc(N(Cc2ccc(-c3ccc(N(C)C)cc3)cc2)C(=O)C23CC4CC(CC(C4)C2)C3)c1 [compound 12, (E)-Methyl 3-(3-(-N-((4′-(dimethylamino)-[1,1′-biphenyl]-4-yl)methyl)adamantane-1-carboxamido)phenyl)acrylate] | 1 to 10 | +++ (‘+++’ means Cmpd/Fex < 10) |
| COC(=O)/C=C/c1cccc(N(Cc2ccc(-c3ccc(N(C)C)cc3)c(F)c2)C(=O)C2CCCCC2)c1 [compound 50, (E)-methyl 3-(3-(N-((4′-(dimethylamino)-2-fluoro-[1,1′-biphenyl]-4-yl)methyl)cyclohexanecarboxamido)phenyl) acrylate] | ≤ 1 | +++ (‘+++’ means Cmpd/Fex < 10) |
| COC(=O)/C=C/c1cccc(N(Cc2ccc(-c3ccc(N(C)C)cc3)cc2F)C(=O)C2CCCCC2)c1 [compound 51, (E)-methyl 3-(3-(N-((4′-(dimethylamino)-3-fluoro-[1,1′-biphenyl]-4-yl)methyl)cyclohexanecarboxamido)phenyl)acrylate] | ≤ 1 | +++ (‘+++’ means Cmpd/Fex < 10) |
| COC(=O)/C=C/c1cccc(N(C(=O)C2CCCCC2)C(C)c2ccc(-c3ccc(N(C)C)cc3)cc2)c1 (stereo not drawn) [compound 46, (E)-Methyl 3-(3-(N-(1-(4′-(dimethylamino)-[1,1′-biphenyl]-4-yl)ethyl)cyclohexanecarboxamido)phenyl) acrylate] | 1 to 10 | ++ (‘++’ means Cmpd/Fex > 10 & < 100) |
| COC(=O)/C=C/c1cccc(N(Cc2ccc(-c3ccc(N(C)C)cc3)cc2)C(=O)c2ccc(C#N)cc2)c1 [compound 4, (E)-Methyl 3-(3-(4-cyano-N-((4′-(dimethylamino)-[1,1′-biphenyl]-4-yl)methyl)benzamido)phenyl)acrylate] | 1 to 10 | +++ (‘+++’ means Cmpd/Fex < 10) |
| COC(=O)/C=C/c1cccc(N(Cc2ccc(-c3ccc(N(C)C)cc3)cc2)C(=O)c2ccc(OC)cc2)c1 [compound 10, (E)-Methyl 3-(3-(N-((4′-(dimethylamino)-[1,1′-biphenyl]-4-yl)methyl)-4-methoxybenzamido)phenyl)acrylate] | 1 to 10 | +++ (‘+++’ means Cmpd/Fex < 10) |
| COC(=O)/C=C/c1cccc(N(Cc2ccc(-c3ccc(N(C)C)cc3)cc2)C(=O)C(C)(C)C)c1 [compound 1, (E)-Methyl 3-(3-(N-((4′-(dimethylamino)-[1,1′-biphenyl]-4-yl)methyl)pivalamido)phenyl)acrylate] | 1 to 10 | +++ (‘+++’ means Cmpd/Fex < 10) |
| COC(=O)CC(C)c1cccc(N(Cc2ccc(-c3ccc(N(C)C)cc3)cc2)C(=O)C2CCCCC2)c1 (stereo not drawn) [compound 94, Methyl 3-(3-(N-((4′-(dimethylamino)-[1,1′-biphenyl]-4-yl)methyl)cyclohexanecarboxamido)phenyl) butanoate] | 1 to 10 | ++ (‘++’ means Cmpd/Fex > 10 & < 100) |
| COC(=O)C#Cc1cccc(N(Cc2ccc(-c3ccc(N(C)C)cc3)cc2)C(=O)C2CCCCC2)c1 [compound 87, Methyl 3-(3-(N-((4′-(Dimethylamino)-[1,1′-biphenyl]-4-yl)methyl)cyclohexanecarboxamido)phenyl) propiolate] | ≤ 1 | +++ (‘+++’ means Cmpd/Fex < 10) |
| COC(=O)CCc1cc(N(Cc2ccc(-c3ccc(N(C)C)cc3)cc2)C(=O)C2CCCCC2)ccc1C [compound 91, Methyl 3-(5-(N-((4′-(dimethylamino)-[1,1′-biphenyl]-4-yl)methyl)cyclohexanecarboxamido)-2-methylphenyl)propanoate] | > 10 | + (‘+’ means Cmpd/Fex > 100) |
| COC(=O)/C=C/c1cc(N(Cc2ccc(-c3ccc(N(C)C)cc3)cc2)C(=O)C2CCCCC2)ccc1C [compound 40, (E)-Methyl 3-(5-(N-((4′-(dimethylamino)-[1,1′-biphenyl]-4-yl)methyl)cyclohexanecarboxamido)-2-methylphenyl)acrylate] | > 10 | + (‘+’ means Cmpd/Fex > 100) |
| COC(=O)/C=C/c1cccc(N(Cc2ccc(C3CCCCC3)cc2)C(=O)C2CCCCC2)c1 [compound 13, (E)-methyl 3-(3-(N-(4-cyclohexylbenzyl)cyclohexanecarboxamido)phenyl)acrylate] | > 10 | + (‘+’ means Cmpd/Fex > 100) |
| CC(C)OC(=O)/C=C/c1cccc(N(Cc2ccc(-c3ccc(N(C)C)cc3)cc2)C(=O)C2CCCCC2)c1 [compound 83, (E)-iso-Propyl 3-(3-(N-((4′-(dimethylamino)-[1,1′-biphenyl]-4-yl)methyl)cyclohexanecarboxamido)phenyl) acrylate] | 1 to 10 | +++ (‘+++’ means Cmpd/Fex < 10) |
